The target of the assay is T1, sGC α1/β1 heterodimer (Homo sapiens, UniProt Q02108+Q02153).
T1 construct: expressed in transfected cells; host or cells: CHO-K1 (clone #7, CHO-K1/sGC)
T1 sequence (Q02108 1-690): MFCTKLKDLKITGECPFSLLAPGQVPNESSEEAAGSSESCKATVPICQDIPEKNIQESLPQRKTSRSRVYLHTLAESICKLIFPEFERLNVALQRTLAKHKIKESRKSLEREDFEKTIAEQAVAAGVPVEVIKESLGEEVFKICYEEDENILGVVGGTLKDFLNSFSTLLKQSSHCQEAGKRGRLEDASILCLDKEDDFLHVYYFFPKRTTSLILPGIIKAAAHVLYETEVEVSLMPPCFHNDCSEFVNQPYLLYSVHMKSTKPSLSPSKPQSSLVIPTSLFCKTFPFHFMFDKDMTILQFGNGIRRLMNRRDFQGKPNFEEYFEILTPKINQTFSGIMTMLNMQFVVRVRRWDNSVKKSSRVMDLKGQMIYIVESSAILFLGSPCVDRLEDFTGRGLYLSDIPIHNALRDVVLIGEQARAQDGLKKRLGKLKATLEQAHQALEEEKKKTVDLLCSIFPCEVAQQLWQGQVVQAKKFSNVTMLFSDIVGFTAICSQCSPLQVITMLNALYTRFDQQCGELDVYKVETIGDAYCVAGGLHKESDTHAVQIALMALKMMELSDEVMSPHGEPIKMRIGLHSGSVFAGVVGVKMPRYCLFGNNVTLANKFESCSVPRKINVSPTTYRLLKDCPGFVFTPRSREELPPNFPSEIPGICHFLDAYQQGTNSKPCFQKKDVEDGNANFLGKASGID
T1 sequence (Q02153 1-619): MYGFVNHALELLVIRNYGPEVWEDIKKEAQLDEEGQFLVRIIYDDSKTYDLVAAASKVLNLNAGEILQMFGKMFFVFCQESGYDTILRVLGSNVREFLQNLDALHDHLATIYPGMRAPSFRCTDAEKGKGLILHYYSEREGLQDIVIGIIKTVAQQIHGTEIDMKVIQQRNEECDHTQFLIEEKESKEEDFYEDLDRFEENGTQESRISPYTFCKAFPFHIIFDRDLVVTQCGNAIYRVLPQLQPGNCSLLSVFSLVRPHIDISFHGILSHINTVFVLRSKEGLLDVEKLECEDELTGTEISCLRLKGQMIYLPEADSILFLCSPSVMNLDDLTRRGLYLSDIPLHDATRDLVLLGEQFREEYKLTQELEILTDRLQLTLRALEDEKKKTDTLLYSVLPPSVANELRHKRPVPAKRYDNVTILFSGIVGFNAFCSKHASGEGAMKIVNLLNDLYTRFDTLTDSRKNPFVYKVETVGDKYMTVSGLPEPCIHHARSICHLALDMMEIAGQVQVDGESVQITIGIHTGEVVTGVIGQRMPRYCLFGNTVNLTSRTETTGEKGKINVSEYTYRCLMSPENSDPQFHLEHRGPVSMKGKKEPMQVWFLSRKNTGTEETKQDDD
The assay can be described thus: Cell-based sGC functional assay (CASA assay): cGMP generation in CHO-K1/sGC cells, HTRF detection. The note with it: for Emax: CHO-K1, percent activation relative to standard Compound A in CHO-K1/sGC cells, read-out: % Act.; for EC50: inflection point (IP) of cGMP generation in CHO-K1/sGC cells, 4P fit, activity expressed as percentage of Compound A. An outline of the steps: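 Stable CHO-K1/sGC cells in EBSS buffer with 5 mM MgCl2, 0.05% BSA and 0.5 mM IBMX were incubated with compound (2.5% DMSO final) ±1 μM DETA-NO for 1 hr at 37° C. cGMP was measured by HTRF. Activation is expressed as % of reference HDA Compound A maximum, with IP and max fold induction from a 4P fit.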

This passage reports Emax and EC50 results from patent publication US9796733B2, “Imidazo-pyrazine derivatives useful as soluble guanylate cyclase activators” (Merck Sharp & Dohme Corp., priority 2014, dated 2017).

Structures are written as SMILES.

With `CC1(c2ccc(F)cc2)C(=O)Nc2nc(-c3cn4c(N)cnc4c(CCC(F)(F)C(F)(F)F)n3)nc(N)c21` (centres unmarked) [Example 267A, 4-Amino-2-(3-amino-8-(3,3,4,4,4-pentafluorobutyl)imidazo[1,2-a]pyrazin-6-yl)-5-(4-fluorophenyl)-5-methyl-5H-pyrrolo[2,3-d]pyrimidin-6(7H)-one], the Emax was determined as 91% and the half-maximal effective concentration (EC50) came to 212 nM.

Regarding `CCCCc1nc(-c2nc(N)c3c(n2)NC(=O)C3(c2cnc(C)cn2)C2CC2)cn2ccnc12` (single isomer, unassigned) [Example 352B, 4-amino-2-(8-butylimidazo[1,2-a]pyrazin-6-yl)-5-cyclopropyl-5-(5-methylpyrazin-2-yl)-5H-pyrrolo[2,3-d]pyrimidin-6(7H)-one], the Emax came out at 96% and the concentration for a half-maximal effect (EC50) came to 302 nM.

Regarding `CC1(c2ccc(F)cc2)C(=O)Nc2nc(-c3cn4ccnc4c(CCC(F)(F)C(F)(F)F)n3)nc(N3CCCC3)c21` (centres unmarked) [Example 301A, 5-(4-fluorophenyl)-5-methyl-2-(8-(3,3,4,4,4-pentafluorobutyl)imidazo[1,2-a]pyrazin-6-yl)-4-(pyrrolidin-1-yl)-5H-pyrrolo[2,3-d]pyrimidin-6(7H)-one], the Emax was determined as 116% and it took 317 nM to reach a half-maximal effect (EC50).

On to `CC1(c2ccc(Cl)cc2)C(=O)Nc2nc(-c3cn4ccnc4cn3)nc(N3CCC(C(F)(F)F)C3)c21` (racemic) [Example 279A, 5-(4-chlorophenyl)-2-(imidazo[1,2-a]pyrazin-6-yl)-5-methyl-4-(3-(trifluoromethyl)pyrrolidin-1-yl)-5H-pyrrolo[2,3-d]pyrimidin-6(7H)-one], for which the Emax was determined as 69% and the EC50 was found to be 58 nM.

For `CC(C)Cc1nc(-c2nc(N)c3c(n2)NC(=O)C3(C)c2ccc(F)cn2)cn2ccnc12` (centres unmarked) [Example 23B, 4-amino-5-(5-fluoropyridin-2-yl)-2-(8-isobutylimidazo[1,2-a]pyrazin-6-yl)-5-methyl-5H-pyrrolo[2,3-d]pyrimidin-6(7H)-one], the Emax was determined as 96% and the EC50 turned out to be 257 nM.

In the case of `CC1(c2ccccc2)C(=O)Nc2nc(-c3cn4c(Br)cnc4c(CCC(F)(F)F)n3)nc(N)c21` (centres unmarked) [Example 265B, 4-amino-2-(3-bromo-8-(3,3,3-trifluoropropyl)imidazo[1,2-a]pyrazin-6-yl)-5-methyl-5-phenyl-5H-pyrrolo[2,3-d]pyrimidin-6(7H)-one], the Emax is 121% and a half-maximal effect (EC50) was put at 648 nM.

As to `CC1(C)C(=O)Nc2nc(-c3cn4ccnc4c(CCC(F)(F)C(F)(F)F)n3)nc(N)c21` [Example 87, 4-amino-5,5-dimethyl-2-(8-(3,3,4,4,4-pentafluorobutyl)imidazo [1,2-a]pyrazin-6-yl)-5H-pyrrolo[2,3-d]pyrimidin-6(7H)-one], the Emax was found to be 54% and the EC50 worked out at 399 nM.

As for `COc1ccc(C2(C)C(=O)Nc3nc(-c4cn5ccnc5c(CCC(F)(F)C(F)(F)F)n4)nc(N)c32)cc1` (centres unmarked) [Example 229B, 4-amino-5-(4-methoxyphenyl)-5-methyl-2-(8-(3,3,4,4,4-pentafluorobutyl)imidazo [1,2-a]pyrazin-6-yl)-5H-pyrrolo[2,3-d]pyrimidin-6(7H)-one], the Emax was 122% and the midpoint of the response, the EC50, lay at 26 nM.

For the compound `CC1(C(=O)NC2CC2)C(=O)Nc2nc(-c3cn4ccnc4c(Cc4cccc(F)c4)n3)nc(N)c21` (single isomer, unassigned) [Example 31A, 4-Amino-N-cyclopropyl-2-(8-(3-fluorobenzyl)imidazo[1,2-a]pyrazin-6-yl)-5-methyl-6-oxo-6,7-dihydro-5H-pyrrolo[2,3-d]pyrimidine-5-carboxamide], the Emax is 141% and the response was half-maximal at 46 nM (EC50).

With `CC1(C)C(=O)Nc2nc(-c3cn4ccnc4c(Cc4ccc(F)cc4)n3)nc(N)c21` [Example 72, 4-amino-2-(8-(4-fluorobenzyl)imidazo[1,2-a]pyrazin-6-yl)-5,5-dimethyl-5H-pyrrolo[2,3-d]pyrimidin-6(7H)-one], the Emax came out at 126% and the EC50 came to 342 nM.

In the case of `CC(C)C1(C)C(=O)Nc2nc(-c3cn4ccnc4c(Cc4ccccc4)n3)nc(N)c21` (single isomer, unassigned) [Example 80B, 4-amino-2-(8-benzylimidazo[1,2-a]pyrazin-6-yl)-5-isopropyl-5-methyl-5H-pyrrolo[2,3-d]pyrimidin-6(7H)-one], the Emax amounted to 88% and the EC50 was determined as 253 nM.

Regarding `Cc1cn2cc(-c3nc(N)c4c(n3)NC(=O)C4(C)c3ccc(F)cn3)nc(Cc3ccc(F)cc3)c2n1` (centres unmarked) [Example 162B, 4-amino-2-(8-(4-fluorobenzyl)-2-methylimidazo[1,2-a]pyrazin-6-yl)-5-(5-fluoropyridin-2-yl)-5-methyl-5H-pyrrolo[2,3-d]pyrimidin-6(7H)-one], the Emax is 88% and the concentration for a half-maximal effect (EC50) stood at 168 nM.

Turning to `CCCc1nc(-c2nc(N)c3c(n2)NC(=O)C3(C)c2ccc(F)cc2)cn2ccnc12` (centres unmarked) [Example 17A, 4-amino-5-(4-fluorophenyl)-5-methyl-2-(8-propylimidazo[1,2-a]pyrazin-6-yl)-5H-pyrrolo[2,3-d]pyrimidin-6(7H)-one], the Emax came out at 124% and the EC50 came to 157 nM.

On to `Nc1nc(-c2cn3cc(C(F)(F)F)nc3c(Cc3ccccc3F)n2)nc2c1C(C(=O)NC1CC1)(C1CC1)C(=O)N2` (single isomer, unassigned) [Example 45B, 4-amino-N,5-dicyclopropyl-2-(8-(2-fluorobenzyl)-2-(trifluoromethyl)imidazo[1,2-a]pyrazin-6-yl)-6-oxo-6,7-dihydro-5H-pyrrolo[2,3-d]pyrimidine-5-carboxamide], for which the Emax was 75% and the 50% effective concentration (EC50) amounted to 217 nM.

As for `CC1(c2ccc(OC(F)(F)F)cc2)C(=O)Nc2nc(-c3cn4ccnc4cn3)nc(N)c21` (centres unmarked) [Example 145A, 4-amino-2-(imidazo[1,2-a]pyrazin-6-yl)-5-methyl-5-(4-(trifluoromethoxy)phenyl)-5H-pyrrolo[2,3-d]pyrimidin-6(7H)-one], the Emax stood at 96% and a half-maximal response (EC50) required 385 nM.

`Cc1cc(Cl)cnc1C1(C2CC2)C(=O)Nc2nc(-c3cn4ccnc4c(CCCC(F)(F)F)n3)nc(N)c21` (single isomer, unassigned) [Example 364A, 4-amino-5-(5-chloro-3-methylpyridin-2-yl)-5-cyclopropyl-2-(8-(4,4,4-trifluorobutyl)imidazo[1,2-a]pyrazin-6-yl)-5H-pyrrolo[2,3-d]pyrimidin-6(7H)-one]: the Emax stood at 138% and the response was half-maximal at 273 nM (EC50).

Consider `CC(C)Cc1nc(-c2nc(N)c3c(n2)NC(=O)C3(C)c2ccc(OC(F)F)cn2)cn2ccnc12` (centres unmarked) [Example 130A, 4-amino-5-(5-(difluoromethoxy)pyridin-2-yl)-2-(8-isobutylimidazo[1,2-a]pyrazin-6-yl)-5-methyl-5H-pyrrolo[2,3-d]pyrimidin-6(7H)-one], for which the Emax stood at 119% and the response was half-maximal at 324 nM (EC50).

With `CC1(c2ccc(F)cc2)C(=O)Nc2nc(-c3cn4ccnc4c(C4CCC4)n3)nc(N)c21` (centres unmarked) [Example 21A, 4-amino-2-(8-cyclobutylimidazo[1,2-a]pyrazin-6-yl)-5-(4-fluorophenyl)-5-methyl-5H-pyrrolo[2,3-d]pyrimidin-6(7H)-one], the Emax was determined as 95% and it took 197 nM to reach a half-maximal effect (EC50).

With `CC1(C)C(=O)Nc2nc(-c3cn4ccnc4c(Cc4cccc(Cl)c4)n3)nc(N)c21` [Example 74, 4-amino-2-(8-(3-chlorobenzyl)imidazo[1,2-a]pyrazin-6-yl)-5,5-dimethyl-5H-pyrrolo[2,3-d]pyrimidin-6(7H)-one], the Emax stood at 94% and the concentration giving a half-maximal response (EC50) amounted to 138 nM.
